Values of other authors in patent US4324553A, “Hair dyeing compositions containing at least one 2,4-diamino-alkylbenzene as coupler” (L'Oreal, priority 1979, dated 1982).

Test system: Salmonella typhimurium (TA 1538 and TA 98)
Settings: Salmonella typhimurium TA 1538 and TA 98, with S9 mix induced by Aroclor 1254; prior-art statement

CCc1ccc(N)cc1N [2,4-Diamino-ethylbenzene]
mutagenic activity as evaluated in the Ames test: high mutagenic activity

Cc1ccc(N)cc1N [2,4-diaminotoluene]
mutagenic activity as evaluated in the Ames test: very high mutagenic activity
